Measured values from patent publication US6355799B1, “Substituted benzene compounds, process for their preparation, and herbicidal and defoliant compositions containing them” (ISK Americas Incorporated, priority 1997, dated 2002).

Key:
Format in all cases: in vivo
[1] = system: redroot pigweed (Amaranthus retroflexus, AMARE); experiment: Pre-emerge test, greenhouse herbicide activity screening; settings: pre-emerge, phytotoxicity rating 0-100 at 14 days after application
Outline: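 Visual ratings on a 0-100 scale (0 no damage, 100 all plants dead) were taken at 14 days after treatment. Rates of 15-1000 g ai/ha in acetone, 187 l/ha, were sprayed onto soil one day after planting (pre-emerge) or onto 2-3 leaf plants with 0.25% v/v surfactant (post-emerge).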

[2] = system: barnyardgrass (Echinochloa crus-galli, ECHCG); experiment: as above; settings: pre-emerge, phytotoxicity rating 0-100 at 14 days after application
Outline: (§1)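 Compounds in acetone were track-sprayed at 15-1000 g ai/ha (187 l/ha) on sandy loam pots: pre-emerge one day after seeding, post-emerge at 2-3 leaf stage with 0.25% v/v non-ionic surfactant. Phytotoxicity was rated 14 days later on a 0 (no damage) to 100 (complete death) scale.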

[3] = system: green foxtail (Setaria viridis, SETVI); experiment: as above; settings: pre-emerge, phytotoxicity rating 0-100 at 14 days after application
Outline: as §1

[4] = system: ivyleaf morningglory (Ipomoea hederacea, IPOHE); experiment: as above; settings: pre-emerge, phytotoxicity rating 0-100 at 14 days after application
Outline: as §1

[5] = system: johnsongrass (Sorghum halepense, SORHA); experiment: as above; settings: pre-emerge, phytotoxicity rating 0-100 at 14 days after application
Outline: as §1

[6] = system: lambsquarters (Chenopodium album, CHEAL); experiment: as above; settings: pre-emerge, phytotoxicity rating 0-100 at 14 days after application
Outline: as §1

[7] = system: large crabgrass (Digitaria sanguinalis, DIGSA); experiment: as above; settings: pre-emerge, phytotoxicity rating 0-100 at 14 days after application
Outline: as §1

[8] = system: sicklepod (Cassia obtusifolia, CASOB); experiment: as above; settings: pre-emerge, phytotoxicity rating 0-100 at 14 days after application
Outline: as §1

[9] = system: velvetleaf (Abutilon theophrasti, ABUTH); experiment: as above; settings: pre-emerge, phytotoxicity rating 0-100 at 14 days after application
Outline: as §1

[10] = system: field corn (Zea mays L., var. Dekalb 535, CORN); experiment: Pre-emerge test, crop safety; settings: crop damage, pre-emerge, phytotoxicity rating 0-100 at 14 days after application
Outline: (§2)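 Applied at 15–1000 g ai/ha from acetone in 187 l/ha spray volume. Post-emergence applications included 0.25% v/v non-ionic surfactant and reached plants sown 8–21 days before. Pre-emergence applications were incorporated by surface watering. Efficacy or crop damage was rated on a 0–100 scale after 14 days.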

[11] = system: upland rice (Oryza sp., var. Tebonnet, RICE); experiment: Pre-emerge test, crop safety; settings: crop damage, pre-emerge, phytotoxicity rating 0-100 at 14 days after application
Outline: as §2

[12] = system: barnyardgrass (Echinochloa crus-galli, ECHCG); experiment: Post-emerge test, greenhouse herbicide activity screening; settings: post-emerge, phytotoxicity rating 0-100 at 14 days after application
Outline: (§3)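 Sandy loam pots; pre-emerge: sown 1 d pre-spray, surface-watered after, then bottom-watered. Post-emerge: sown 8–21 d before, 2–3 leaf stage, + 0.25% v/v NIS, bottom-watered. Acetone, 187 l/ha track spray, 15–1000 g ai/ha. 0–100 injury score, day 14.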

[13] = system: green foxtail (Setaria viridis, SETVI); experiment: as above; settings: post-emerge, phytotoxicity rating 0-100 at 14 days after application
Outline: as §3

[14] = system: ivyleaf morningglory (Ipomoea hederacea, IPOHE); experiment: as above; settings: post-emerge, phytotoxicity rating 0-100 at 14 days after application
Outline: as §3

[15] = system: lambsquarters (Chenopodium album, CHEAL); experiment: as above; settings: post-emerge, phytotoxicity rating 0-100 at 14 days after application
Outline: as §3

[16] = system: large crabgrass (Digitaria sanguinalis, DIGSA); experiment: as above; settings: post-emerge, phytotoxicity rating 0-100 at 14 days after application
Outline: as §3

[17] = system: redroot pigweed (Amaranthus retroflexus, AMARE); experiment: as above; settings: post-emerge, phytotoxicity rating 0-100 at 14 days after application
Outline: as §3

[18] = system: sicklepod (Cassia obtusifolia, CASOB); experiment: as above; settings: post-emerge, phytotoxicity rating 0-100 at 14 days after application
Outline: as §3

[19] = system: velvetleaf (Abutilon theophrasti, ABUTH); experiment: as above; settings: post-emerge, phytotoxicity rating 0-100 at 14 days after application
Outline: as §3

[20] = system: field corn (Zea mays L., var. Dekalb 535, CORN); experiment: Post-emerge test, crop safety; settings: post-emerge, crop damage rating 0-100 at 14 days after application
Outline: as §1

[21] = system: upland rice (Oryza sp., var. Tebonnet, RICE); experiment: Post-emerge test, crop safety; settings: post-emerge, crop damage rating 0-100 at 14 days after application
Outline: as §1

COc1c(Cl)cc(F)c(-n2nnn(CCCF)c2=O)c1NC(=O)COCc1ccccc1 [Compound 5-28]
50: Pre-emerge Herbicidal Activity SETVI ([3]; rate 63 g ai/ha) | Post-emerge Herbicidal Activity ECHCG ([12]; 250 g ai/ha)
85: Pre-emerge Herbicidal Activity SETVI ([3]; rate 250 g ai/ha)
30: Pre-emerge Herbicidal Activity ECHCG ([2]; rate 63 g ai/ha) | Pre-emerge Herbicidal Activity SORHA ([5]; rate 250 g ai/ha) | Pre-emerge Herbicidal Activity DIGSA ([7]; rate 63 g ai/ha) | Pre-emerge Herbicidal Activity RICE ([11]; rate 63 g ai/ha) | Post-emerge Herbicidal Activity SETVI ([13]; 250 g ai/ha) | Post-emerge Herbicidal Activity DIGSA ([16]; 250 g ai/ha)
10: Pre-emerge Herbicidal Activity CORN ([10]; rate 63 g ai/ha) | Post-emerge Herbicidal Activity SETVI ([13]; 63 g ai/ha) | Post-emerge Herbicidal Activity DIGSA ([16]; 63 g ai/ha)
100: Pre-emerge Herbicidal Activity AMARE ([1]; rate 63 g ai/ha) | Pre-emerge Herbicidal Activity AMARE ([1]; rate 250 g ai/ha) | Pre-emerge Herbicidal Activity IPOHE ([4]; rate 250 g ai/ha) | Pre-emerge Herbicidal Activity CHEAL ([6]; rate 63 g ai/ha) | Pre-emerge Herbicidal Activity CHEAL ([6]; rate 250 g ai/ha) | Pre-emerge Herbicidal Activity CASOB ([8]; rate 63 g ai/ha) | Pre-emerge Herbicidal Activity CASOB ([8]; rate 250 g ai/ha) | Pre-emerge Herbicidal Activity ABUTH ([9]; rate 63 g ai/ha) | Pre-emerge Herbicidal Activity ABUTH ([9]; rate 250 g ai/ha) | Post-emerge Herbicidal Activity IPOHE ([14]; 63 g ai/ha) | Post-emerge Herbicidal Activity IPOHE ([14]; 250 g ai/ha) | Post-emerge Herbicidal Activity CHEAL ([15]; 63 g ai/ha) | Post-emerge Herbicidal Activity CHEAL ([15]; 250 g ai/ha) | Post-emerge Herbicidal Activity AMARE ([17]; 63 g ai/ha) | Post-emerge Herbicidal Activity AMARE ([17]; 250 g ai/ha) | Post-emerge Herbicidal Activity CASOB ([18]; 250 g ai/ha) | Post-emerge Herbicidal Activity ABUTH ([19]; 63 g ai/ha) | Post-emerge Herbicidal Activity ABUTH ([19]; 250 g ai/ha)
25: Post-emerge Herbicidal Activity CORN ([20]; 63 g ai/ha)
90: Pre-emerge Herbicidal Activity DIGSA ([7]; rate 250 g ai/ha) | Post-emerge Herbicidal Activity CASOB ([18]; 63 g ai/ha)
0: Post-emerge Herbicidal Activity ECHCG ([12]; 63 g ai/ha)
70: Post-emerge Herbicidal Activity CORN ([20]; 250 g ai/ha) | Post-emerge Herbicidal Activity RICE ([21]; 250 g ai/ha)
60: Pre-emerge Herbicidal Activity ECHCG ([2]; rate 250 g ai/ha) | Pre-emerge Herbicidal Activity IPOHE ([4]; rate 63 g ai/ha) | Pre-emerge Herbicidal Activity RICE ([11]; rate 250 g ai/ha) | Post-emerge Herbicidal Activity RICE ([21]; 63 g ai/ha)
20: Pre-emerge Herbicidal Activity SORHA ([5]; rate 63 g ai/ha) | Pre-emerge Herbicidal Activity CORN ([10]; rate 250 g ai/ha)

COc1c(Cl)cc(F)c(-n2nnn(CCCF)c2=O)c1NC(=O)c1ccc2ccccc2c1 [Compound 5-26]
20: Pre-emerge Herbicidal Activity ECHCG ([2]; rate 63 g ai/ha) | Post-emerge Herbicidal Activity ECHCG ([12]; 63 g ai/ha) | Post-emerge Herbicidal Activity DIGSA ([16]; 63 g ai/ha)
90: Pre-emerge Herbicidal Activity SETVI ([3]; rate 250 g ai/ha) | Post-emerge Herbicidal Activity IPOHE ([14]; 63 g ai/ha) | Post-emerge Herbicidal Activity AMARE ([17]; 250 g ai/ha) | Post-emerge Herbicidal Activity CASOB ([18]; 63 g ai/ha)
30: Pre-emerge Herbicidal Activity ECHCG ([2]; rate 250 g ai/ha) | Pre-emerge Herbicidal Activity SORHA ([5]; rate 250 g ai/ha) | Pre-emerge Herbicidal Activity DIGSA ([7]; rate 63 g ai/ha) | Post-emerge Herbicidal Activity DIGSA ([16]; 250 g ai/ha)
100: Pre-emerge Herbicidal Activity AMARE ([1]; rate 63 g ai/ha) | Pre-emerge Herbicidal Activity AMARE ([1]; rate 250 g ai/ha) | Pre-emerge Herbicidal Activity CHEAL ([6]; rate 63 g ai/ha) | Pre-emerge Herbicidal Activity CHEAL ([6]; rate 250 g ai/ha) | Pre-emerge Herbicidal Activity ABUTH ([9]; rate 250 g ai/ha) | Post-emerge Herbicidal Activity CHEAL ([15]; 63 g ai/ha) | Post-emerge Herbicidal Activity CHEAL ([15]; 250 g ai/ha) | Post-emerge Herbicidal Activity AMARE ([17]; 63 g ai/ha) | Post-emerge Herbicidal Activity CASOB ([18]; 250 g ai/ha) | Post-emerge Herbicidal Activity ABUTH ([19]; 63 g ai/ha) | Post-emerge Herbicidal Activity ABUTH ([19]; 250 g ai/ha)
50: Post-emerge Herbicidal Activity RICE ([21]; 63 g ai/ha)
0: Pre-emerge Herbicidal Activity IPOHE ([4]; rate 63 g ai/ha) | Pre-emerge Herbicidal Activity SORHA ([5]; rate 63 g ai/ha) | Pre-emerge Herbicidal Activity CORN ([10]; rate 63 g ai/ha) | Pre-emerge Herbicidal Activity CORN ([10]; rate 250 g ai/ha)
80: Pre-emerge Herbicidal Activity DIGSA ([7]; rate 250 g ai/ha) | Pre-emerge Herbicidal Activity CASOB ([8]; rate 250 g ai/ha)
10: Pre-emerge Herbicidal Activity CASOB ([8]; rate 63 g ai/ha) | Post-emerge Herbicidal Activity CORN ([20]; 63 g ai/ha)
5: Post-emerge Herbicidal Activity CORN ([20]; 250 g ai/ha)
70: Pre-emerge Herbicidal Activity ABUTH ([9]; rate 63 g ai/ha) | Post-emerge Herbicidal Activity SETVI ([13]; 250 g ai/ha) | Post-emerge Herbicidal Activity IPOHE ([14]; 250 g ai/ha)
15: Pre-emerge Herbicidal Activity RICE ([11]; rate 63 g ai/ha)
40: Pre-emerge Herbicidal Activity IPOHE ([4]; rate 250 g ai/ha) | Pre-emerge Herbicidal Activity RICE ([11]; rate 250 g ai/ha) | Post-emerge Herbicidal Activity SETVI ([13]; 63 g ai/ha)
60: Pre-emerge Herbicidal Activity SETVI ([3]; rate 63 g ai/ha) | Post-emerge Herbicidal Activity ECHCG ([12]; 250 g ai/ha) | Post-emerge Herbicidal Activity RICE ([21]; 250 g ai/ha)
